Experimental data: ChEMBL document CHEMBL5244200, “MicroRNAs as novel endogenous targets for regulation and therapeutic treatments” (Medchemcomm, 2018)
Blank lines part the entries; values can stand above or below the compound they belong to.

Legend:
[1] = Inhibition of miR-210 (unknown origin)
[2] = Effect on pre-miR-210 in human MDA-MB-231 cells assessed as fold increase at 200 nM; assay type: functional
[3] = Effect on pri-miR-210 in human MDA-MB-231 cells assessed as fold increase at 200 nM; assay type: functional
[4] = In vivo inhibition of miR-210 in human MDA-MB-231 cells xenografted with SCID mouse assessed as reduction in protein level under hypoxia condition relative to control; assay type: functional; design: scale not given: the % may be the effect or the level left
[5] = Upregulation of GPD1L in human MDA-MB-231 cells assessed as fold increase in expression level; assay type: functional
[6] = In vivo inhibition of miR-210 in human MDA-MB-231 cells xenografted with SCID mouse assessed as reduction in […] level at 20 pmol relative to control; design: scale not given: the % may be the effect or the level left
[7] = Effect on miR-96 in human MCF7 cells assessed as decrease in expression level at 40 uM relative to control; assay type: functional; design: scale not given: the % may be the effect or the level left
[8] = Activation of miRNA (unknown origin)
HCT-116 = test: Antiproliferative activity against human HCT-116 cells assessed as reduction in cell viability measured after 72 hrs by MTT assay; assay type: functional, cell-based; conditions: HCT-116, 72 h
[9] = Inhibition of miR-21 in human HeLa cells assessed as inhibition; assay type: cell-based
HeLa = test: Inhibition of pri-miR-21 in human HeLa cells assessed as reduction in expression level at 10 uM relative to control; assay type: cell-based
[10] = Inhibition of miR-122 (unknown origin) by luciferase signalling
[11] = Inhibition of pri-miR-122 (unknown origin) at 10 uM relative to control
Hepatitis C virus = test: Antiviral activity against HCV; assay type: functional, Hepacivirus hominis
Huh7 (Homo sapiens) = test: Inhibition of miR-122 in human Huh7 cells assessed as fold increase at 10 uM by luciferase signal
[12] = Activation of miR-122 (unknown origin) by luciferase assay
HepG2 = test: Cytotoxicity against human HepG2 cells assessed as reduction in cell viability measured after 24 hrs at 10 uM relative to control; assay type: toxicity, cell-based; conditions: hepg2, 24 h
[13] = Inhibition of miRNA (unknown origin)
[14] = Inhibition of miRNA (unknown origin) by fluorescence polarization assay
[15] = Inhibition of myomiRs (unknown origin)
[16] = Inhibition of miR-206 (unknown origin)
MCF7 [17] = test: Inhibition of miR-21 in human MCF7 cells assessed as fold increase at 10 uM by luciferase signalling assay; assay type: cell-based
MCF7 [18] = test: Inhibition of miR-21 in human MCF7 cells assessed as fold increase in PDCD4 protein level; assay type: cell-based
MCF7 [19] = test: Induction of apoptosis human MCF7 cells at 5 uM assessed as fold increase in apoptotic rate; assay type: functional
[20] = Inhibition of miR-122 (unknown origin)
[21] = Inhibition of mature miR-122 (unknown origin) at 10 uM relative to control
[22] = Induction of human MDA-MB-231 cells assessed as induces increasing in apoptotic rate by western blot analysis relative to control; assay type: functional
pre-miR-544 (human) = test: Effect on pre-miR-544 in human MCF-10A cells assessed as fold increasing level
miR-544 (human) = test: Effect on miR-544 in human MCF-10A cells assessed as reduction in expression level relative to control; design: scale not given: the % may be the effect or the level left
MCF7 [23] = test: Inhibition of miR-27a (unknown origin) transfected in human MCF7 cells assessed as fold increase at 20 uM by luciferase assay; assay type: cell-based

- IC50 [1]: 200 nM
Structure (SMILES): CN1CCN(c2ccc3nc(-c4ccc5[nH]c(-c6cccc(OCCCC(=O)NCCN=[N+]=[N-])c6)nc5c4)[nH]c3c2)CC1
- fold change (FC) [2]: 2.6
- fold change (FC) [3]: 3
- Activity [4]: 90%
- fold change (FC) [5]: 5
- Activity [6]: 75%

Structure (SMILES): CN1CCN(c2ccc3nc(-c4cc(C(C)(C)C)c(OCCCC(=O)NCCCN=[N+]=[N-])c(C(C)(C)C)c4)[nH]c3c2)CC1
- Activity [7]: 90%

- EC50 [8]: 30000 nM
- EC50 (HCT-116): 124000 nM
Structure (SMILES): CCn1cc(C(=O)O)c(=O)c2cc(F)c(N3CCNCC3)nc21 [ENOXACIN]

- EC50 [9]: 2000 nM
Structure (SMILES): C#CCNC(=O)c1ccc(/N=N/c2ccc(N)cc2)cc1
- inhibition (HeLa): 80%

- IC50 [10]: 600 nM
- inhibition [11]: 90%
Structure (SMILES): O=S(=O)(c1ccc2c(c1)CCCN2)N1CCC[C@H]2CCCC[C@@H]21
- Activity (Hepatitis C virus): 50%
- fold change (FC) (Huh7 (Homo sapiens)): 12.5

- EC50 [12]: 3000 nM
Structure (SMILES): CN(C)CCN1C(=O)c2cccc3cccc(c23)C1=O
- Activity (HepG2): 80%

- IC50 [13]: 470 nM
- IC50 [14]: 470 nM
Structure (SMILES): O=C(O)C1=CC(=C(c2ccc(O)c(C(=O)O)c2)c2ccc(O)c(C(=O)O)c2)C=CC1=O [AURINTRICARBOXYLIC ACID]

- IC50 [15]: 2500 nM
- IC50 [16]: 5000 nM
Structure (SMILES): COC12C(=O)c3ccccc3C(=O)C1C(c1ccccc1)=C2c1ccc(OC(=O)OC(C)(C)C)c2ncccc12 (configuration not stated)

Structure (SMILES): CN[C@@H]1[C@H](O[C@H]2[C@H](O[C@H]3[C@H](O)[C@@H](O)[C@H](N=C(N)N)[C@@H](O)[C@@H]3N=C(N)N)O[C@@H](C)[C@]2(O)C=O)O[C@@H](CO)[C@H](O)[C@H]1O [STREPTOMYCIN]
- fold change (FC) (MCF7 [17]): 1.4
- fold change (FC) (MCF7 [18]): 2
- fold change (FC) (MCF7 [19]): 2

- IC50 [20]: 3000 nM
- inhibition [21]: 50%
Structure (SMILES): O=C(Nc1ccc2ccccc2c1)c1ccc(Cl)cc1Cl
- Activity (Hepatitis C virus): 50%
- fold change (FC) (Huh7 (Homo sapiens)): 7.7

Structure (SMILES): N#Cc1c(N2CCCC2)nc(N)c2c(N)nc(N3CCCC3)cc12
- Activity [22]: 60%
- fold change (FC) (pre-miR-544 (human)): 2
- Activity (miR-544 (human)): 90%

Structure (SMILES): NC[C@@H]1O[C@H](O[C@H]2[C@@H](O)[C@H](O[C@@H]3[C@@H](O)[C@H](N)C[C@H](N)[C@H]3O[C@H]3O[C@H](CN)[C@@H](O)[C@H](O)[C@H]3N)O[C@@H]2CO)[C@H](N)[C@@H](O)[C@@H]1O
- fold change (FC) (MCF7 [23]): 1.2
